According to patent US6716819B2, “Use of xylitol to reduce ionic strength and activate endogenous antimicrobials for prevention and treatment of infections” (University of Iowa Research Foundation, priority 2000, dated 2004):

How the values were obtained:
non-CF epithelia = experiment: ASL Cl- concentration and volume (isotope method); format: cell-based, human
Experimental: FIGS. 3(A-B). The effect of apical xylitol on non-CF and CF ASL Cl^− concentration and volume. Five μl of isosmotic xylitol or saline solution were applied to the apical surface. Twenty-four hours later, ASL Cl^− concentration (A) and volume (B) were determined. Asterisk indicates a difference between the saline and the xylitol solutions, p<0.05. N=15 to 18 from 3 CF and 3 non-CF specimens.
Airway epithelial cells were isolated from tracheal and bronchial tissue. […] All epithelia were evaluated with scanning electron microscopy for the development of a ciliated apical surface.
The ASL Cl^− concentration was measured as previously described (Zabner, J., J. J. Smith, P. H. Karp, J. H. Widdicombe, and M. J. Welsh. 1998. Loss of CFTR chloride channels alters salt absorption by cystic fibrosis airway epithelia in vitro. Mol. Cell. 2:397-403). […] The ratio of ^36Cl to ^3H2O was determined by liquid scintillation. […] From these measurements, it was determined the ^3H2O activity per μl of water and the cpm of ^36Cl per mole of Cl^− in the basolateral medium. ASL volume was calculated from the ASL ^3H2O collected divided by the ratio of ^3H2O activity per μl of basolateral medium. Chloride content was calculated from the ASL ^36Cl collected divided by the ratio of ^36Cl per mole of Cl^− in the basolateral medium ASL Cl^− concentration was calculated from the Cl^− content divided by the volume of ASL. […]

P. aeruginosa = experiment: Antibiotic effect in Lauria-Bertani (rich) media; format: cell-based; conditions: Lauria-Bertani media with 100 mM xylitol
Experimental: (§1) FIGS. 5(A-G). Effect of xylitol on growth of different airway pathogens. A, B and C. Growth of P. aeruginosa (A), S. aureus, (B), and coagulase-negative Staphylococcus (C) were measured as O. D. M9 media alone is indicated by open triangle. Xylitol (closed circle), or succinate, mannitol, or sucrose (open circles), were added to M9 media at 100 mM as indicated. D. Nasal swabs were collected and cultured for 3 days in Lauria-Bertani media (open circles), in minimal M9 media (open squares), or in M9 media supplemented with 100 mM xylitol (closed circles). E, F and G. P. aeruginosa (E), S. aureus (F), and coagulase-negative Staphylococcus (G) were cultured in Lauria-Bertani media alone (open triangles), Lauria-Bertani media with 100 mM xylitol (closed circles), and Lauria-Bertani media containing tobramycin or levofloxacin (open circles).
(§2) To test the effect of xylitol on growth of different airway pathogens in a carbon-starved media, P. aeruginosa, S. aureus, and coagulase-negative Staphylococcus were grown overnight in Lauria-Bertani medium. The bacteria were then centrifuged and resuspended in M9 media containing either 100 mM succinate, mannitol, or sucrose, respectively, and grown overnight at 37° C. The bacteria were centrifuged and resuspended in M9 media alone. M9 media containing 100 mM xylitol, or 100 mM of the indicated metabolizable sugar, as positive control. The optical density (O.D.) was measured after 0, 1, 2, and 4 hours at 600 nm on a Beckman DU640 Spectrophotometer (Schaumburg, Ill.). To test the antibiotic effect of xylitol, P. aeruginosa, S. aureus, and coagulase-negative Staphylococcus were grown overnight in Lauria-Bertani medium. The bacteria were then centrifuged and resuspended in Lauria-Bertani media with and without 100 mM xylitol. As a positive control, antibiotics with specific activity to each of the bacteria were added to the media (40 μg/ml tobramycin or 40 μg/ml levofloxacin).

S. aureus = experiment: Antibiotic effect in Lauria-Bertani (rich) media; format: cell-based; conditions: Lauria-Bertani media with 100 mM xylitol
Experimental: as §1, §2

[1] = system: coagulase-negative Staphylococcus; experiment: Antibiotic effect in Lauria-Bertani (rich) media; format: cell-based; conditions: Lauria-Bertani media with 100 mM xylitol
Experimental: as §1, §2

CF epithelia = experiment: Bacteria deposited into liquid covering CF epithelia; format: cell-based, human; conditions: bacteria grew on untreated or saline-treated epithelia
[2] = system: coagulase-negative Staphylococcus
From the text: Effect of xylitol administration to nasal mucosa on coagulase-negative Staphylococcus.
Subjects were over 18 years old. […] Twenty-one normal healthy subjects (10 male and 11 female, age 20 to 52 years) participated.
The design was a double-blind, randomized, cross-over study. Subjects were randomized to one of two groups: xylitol followed by saline or saline followed by xylitol. A culture of both anterior nares was obtained on day zero. Then subjects sprayed each nostril with a prefilled syringe of solution 4 times per day for 4 days. On the morning of day 5, subjects did their final application at breakfast time, then a nasal swab was obtained 2 hours later. No treatment was administered for the next 7 days. Subjects then repeated the protocol with the opposite solution. The saline solution was 0.9% NaCl in water (Baxter Health Care Corp., Deerfield, Ill.). The xylitol solution was 5% xylitol (304 mM) in water. The solutions were nebulized using an Accuspray syringe (Becton Dickinson Pharmaceutical Systems, Franklin Lakes, N.J.), containing 250 μl of solution. The xylitol and saline syringes were identical. The mass medium diameter of particles was ˜60 μm. It was impossible to disguise the sweet taste of xylitol.
Samples for cultures were obtained with sterile rayon swabs (Culturette Collection and Transport System, Becton Dickinson Microbiology Systems, Sparks, Md.). […] The plates were incubated at 37° C. for 24 hours and the colonies of coagulase-negative Staphylococcus colonies were identified and counted using a Cling-On Grid (Spiral Biotech, Bethesda, Md.). […]
A randomized, double-blind, cross-over study was performed. The nasal mucosa was swabbed and the number of coagulase-negative Staphylococcus was determined by culture. […] After 4 days, the number of nasal coagulase-negative Staphylococcus was counted again. […]
Analysis of variance for a cross-over design was applied on the change in bacterial count from pretreatment to post treatment. […] Thus, the comparison of xylitol vs. saline was evaluated from the data of both nostrils and both sequences.

[3] = in chewing gum, lozenges, or syrup; cited from earlier work

## OC[C@@H](O)[C@H](O)[C@@H](O)CO [xylitol]
non-CF epithelia; 24 hours after 5 μl apical
  estimated ASL volume: increased
non-CF epithelia; 24 hours after 5 μl isosmotic xylitol solution apical
  ASL Cl- concentration: 34.2 ± 4.3 mM
P. aeruginosa
  inhibition of growth of P. aeruginosa: did not inhibit the growth
S. aureus
  inhibition of growth of S. aureus: did not inhibit the growth
[1]
  inhibition of growth of coagulase-negative Staphylococcus: did not inhibit the growth
CF epithelia
  fate of bacteria deposited into xylitol-containing liquid covering CF epithelia: the bacteria were killed
[2]; in vivo
  adverse effects reported by subjects: none of the subjects tested reported adverse effects
[2]; normal subjects, nasal spray 4 times a day for 4 days, interquartile range in brackets
  median change in coagulase-negative Staphylococcus count: 500 (interquartile range of 1152 to 120) cfu
[2]; normal subjects, nasal spray 250 μl per nostril 4 times a day for 4 days, p=0.05 vs saline
  average reduction of coagulase-negative Staphylococcus in treated nostrils: 597±242 cfu
[3]
  decrease in incidence of acute otitis media: 20-40%
